One test deals with PARP2 (Mus musculus (Mouse), UniProt O88554). Briefly: PARP2 autoparsylation biochemical assay, LC/MS detection of nicotinamide. The following applies: read-out: PARP2 Ic50, 20 nM enzyme, 250 μM NAD+, 60 min room temperature.
The subject of a further test is Axin2 protein. Kind of test: Cellular ELISA assay for stabilizing the Axin2 protein in SW480 cells. The following applies: Homo sapiens, 24 hrs treatment, read-out: Axin AC50. It counts as cell-based. The protocol:
Compound activity in stabilizing the Axin2 protein was measured by Sandwich Enzyme-Linked Immuosorbent (ELISA) assay in the colorectal cell line SW480. 30,000 SW480 cells were seeded per well in 96-well plate and incubated overnight prior to compound treatment. Cells were then treated with compounds in 6-point dilution starting at 10 μM for 24 hrs. Cells were then washed with 100 μL of cold Phosphate Buffer Saline (PBS), and lysed in 125 μl of cold 1× lysis buffer (Cell Signaling Technology, 9803) supplemented with Protease inhibitor (Roche, 11836170) and Phosphatase inhibitors (Sigma, P2850, P5726). For the ELISA assay, anti Axin-2 capture antibody (Strategic Diagnostics) antibody was diluted to a concentration of 1 μg/ml (1:1000) in Carbonate Coating buffer, pH 9.2 (Sigma, C3041-50CAP). 100μ of the diluted anti Axin-2 capture antibody per well was then used to coat the 96-well ELISA plate (Thermo Electron Corp., MicroLite 1 flat bottom plate #7571) overnight at 4° C. Plates were then washed three times with 300 μl/well of wash solution, PBST20 (PBS+0.05% Tween), and blocked with 300 μl/well 1% BSA/PBS (BSA, Millipore Probumin #82-045-1) for 1.5 hours at room temperature while shaking gently. After blocking, plates were then washed three times with 300 μl/well of wash solution. 100 μL of prepared SW480 cell lysate was then added to each well and incubated at room temperature for 2 hours while shaking gently. After washing, 100 μL of Biotinylated anti-Axin2 antibody (CST, 2151) was added to each well and incubated room temperature for 2 hours. 100 μL of Streptavidin-HRP (R&D systems, DY998) diluted 1:200 in 1% BSA/PBS was then added in each well and incubate for 30 mins at R/T in the dark. Signal was detected by Chemiluminescence (Pierce SuperSignal ELISA Femto #3704), and measured on PerkinElmer Wallac 1420 plate reader.
In general terms: In an ELISA, binding on a coated surface is turned into a signal by an enzyme label.

The subject of test [1] is Non-small lung cancer ABC-1 cells. Briefly: Cellular proliferation assay, ABC-1 cells (CellTiter-Glo). The following applies: Homo sapiens, 72 h, 3 days of compound treatment. It counts as cell-based. The protocol: Non-small lung cancer ABC-1 cells were plated at 5000 cells per well in 96-well plates and treated with 8 serial compound dilutions starting from 10 μM as the highest concentration. Viable cells were measured after 3 days of compound treatment using the CellTiter-Glo assay (Promega, G7570). Assay was performed following the manufacture protocol.

The next test has as its target Human PARP1 (Homo sapiens (Human), UniProt P09874). Briefly: PARP1 autoparsylation biochemical assay, LC/MS detection of nicotinamide. The settings on record: read-out: PARP1 IC50, 20 nM enzyme, 250 μM NAD+, 60 min room temperature.
In test [2] the test system is Wnt ligand-induced signaling. Briefly: Wnt-responsive Super-TOpFlash (STF) luciferase reporter gene assay in HEK293 cells. It is filed as cell-based. The settings on record: Homo sapiens, Wnt3A condition medium induced. The protocol:
Compound activity in inhibiting Wnt ligand-induced signaling was measured using a Wnt-responsive Super-TOpFlash (STF) luciferase reporter gene assay in HEK293 cells. On day 1 of the assay, cells were plated at a density of 8000 cells per well of 384-well plate in 25 μl medium containing 5% fetal bovine serum (FBS). On the second day, […] condition medium (CM) produced from mouse L cells was added to the cells to induce Wnt signaling, followed by addition of 5 μL of compounds each well in 10-point serial dilution. On the third day, the luciferase activity was measured by the Bright-Glo™ Luciferase Assay System following manufacture's protocol (Promega, E2620). The Inhibition was calculated as: (Maximum Wnt-induced signaling−Sample)/(Maximum Wnt-induced signaling−Background)*100. “Maximum Wnt-induced signaling” is the STF signal level induced by 20% Wnt3A CM without compound; and “Background” is the STF signal level without the addition of Wnt3A CM or compound.
(Reporter assays use an easily measured gene product as a stand-in for the process of interest.)

Test [3] has as its target tankyrase 2 protein PARP domain, TNKS2P (GST-tagged) (Homo sapiens (Human), UniProt Q9H2K2). Kind of test: TNKS2 autoparsylation (AP) biochemical assay, LC/MS detection of nicotinamide. The following applies: 20 nM enzyme, 250 μM NAD+, 60 min room temperature.
The target in test [4] is human tankyrase 1 PARP catalytic domain, TNKS1P (GST-tagged) (Homo sapiens (Human), UniProt O95271). Kind of test: TNKS1 autoparsylation (AP) biochemical assay, LC/MS detection of nicotinamide. The following applies: 20 nM enzyme, 250 μM NAD+, 60 min room temperature. The procedure:
The human tankyrase 1 PARP catalytic domain, TNKS1P, was cloned into a pDONR221 vector using the Invitrogen Gateway Technology. This entry clone was then subcloned into the destination vector pDEST20 to obtain the N-terminal Glutathione S-transferase (GST)-tagged fusion protein.
The autoparsylation activity of the TNKS 1/2 or PARP1/2 enzymes was measured by the liquid chromatography-mass spectrometry (LC/MS) detection of nicotinamide as readout. Compound activity in inhibiting the TNKS and PARP autoparsylation was evaluated by IC50 measurements.

In test [5] the test system is Herpes Simplex Virus (HSV). The following applies: cited from earlier work.

A value given as a limit tells only on which side of the number the result lay.

Chain of human tankyrase 1 PARP catalytic domain, TNKS1P (GST-tagged) (O95271 1112-1317): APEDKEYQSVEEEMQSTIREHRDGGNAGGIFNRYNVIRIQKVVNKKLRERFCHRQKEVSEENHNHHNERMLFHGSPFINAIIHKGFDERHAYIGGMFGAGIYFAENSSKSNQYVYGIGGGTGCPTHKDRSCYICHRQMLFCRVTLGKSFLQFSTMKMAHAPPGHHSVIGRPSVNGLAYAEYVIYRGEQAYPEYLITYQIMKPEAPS
Chain of PARP2 (O88554 whole entry): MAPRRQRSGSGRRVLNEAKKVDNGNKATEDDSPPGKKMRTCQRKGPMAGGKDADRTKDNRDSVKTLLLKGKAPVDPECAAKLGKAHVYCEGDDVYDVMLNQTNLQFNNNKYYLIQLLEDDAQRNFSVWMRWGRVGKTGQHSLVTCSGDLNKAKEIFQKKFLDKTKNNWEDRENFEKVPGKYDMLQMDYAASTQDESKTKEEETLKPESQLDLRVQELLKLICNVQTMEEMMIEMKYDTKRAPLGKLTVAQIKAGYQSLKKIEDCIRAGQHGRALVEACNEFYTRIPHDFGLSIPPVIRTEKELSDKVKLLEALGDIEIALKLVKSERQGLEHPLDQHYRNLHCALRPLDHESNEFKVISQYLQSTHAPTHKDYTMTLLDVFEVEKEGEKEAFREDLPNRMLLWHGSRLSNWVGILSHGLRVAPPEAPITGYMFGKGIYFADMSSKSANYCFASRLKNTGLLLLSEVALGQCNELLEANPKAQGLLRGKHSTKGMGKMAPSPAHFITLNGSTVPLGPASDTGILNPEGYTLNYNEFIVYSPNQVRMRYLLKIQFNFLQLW
Chain of tankyrase 2 protein PARP domain, TNKS2P (GST-tagged) (Q9H2K2 959-1164): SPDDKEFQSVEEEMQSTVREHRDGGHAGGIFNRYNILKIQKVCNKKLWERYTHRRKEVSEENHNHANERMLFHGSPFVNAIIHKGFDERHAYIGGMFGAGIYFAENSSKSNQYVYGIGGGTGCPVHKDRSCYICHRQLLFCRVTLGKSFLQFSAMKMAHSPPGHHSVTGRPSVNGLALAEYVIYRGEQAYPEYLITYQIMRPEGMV
Chain of Human PARP1 (P09874 whole entry): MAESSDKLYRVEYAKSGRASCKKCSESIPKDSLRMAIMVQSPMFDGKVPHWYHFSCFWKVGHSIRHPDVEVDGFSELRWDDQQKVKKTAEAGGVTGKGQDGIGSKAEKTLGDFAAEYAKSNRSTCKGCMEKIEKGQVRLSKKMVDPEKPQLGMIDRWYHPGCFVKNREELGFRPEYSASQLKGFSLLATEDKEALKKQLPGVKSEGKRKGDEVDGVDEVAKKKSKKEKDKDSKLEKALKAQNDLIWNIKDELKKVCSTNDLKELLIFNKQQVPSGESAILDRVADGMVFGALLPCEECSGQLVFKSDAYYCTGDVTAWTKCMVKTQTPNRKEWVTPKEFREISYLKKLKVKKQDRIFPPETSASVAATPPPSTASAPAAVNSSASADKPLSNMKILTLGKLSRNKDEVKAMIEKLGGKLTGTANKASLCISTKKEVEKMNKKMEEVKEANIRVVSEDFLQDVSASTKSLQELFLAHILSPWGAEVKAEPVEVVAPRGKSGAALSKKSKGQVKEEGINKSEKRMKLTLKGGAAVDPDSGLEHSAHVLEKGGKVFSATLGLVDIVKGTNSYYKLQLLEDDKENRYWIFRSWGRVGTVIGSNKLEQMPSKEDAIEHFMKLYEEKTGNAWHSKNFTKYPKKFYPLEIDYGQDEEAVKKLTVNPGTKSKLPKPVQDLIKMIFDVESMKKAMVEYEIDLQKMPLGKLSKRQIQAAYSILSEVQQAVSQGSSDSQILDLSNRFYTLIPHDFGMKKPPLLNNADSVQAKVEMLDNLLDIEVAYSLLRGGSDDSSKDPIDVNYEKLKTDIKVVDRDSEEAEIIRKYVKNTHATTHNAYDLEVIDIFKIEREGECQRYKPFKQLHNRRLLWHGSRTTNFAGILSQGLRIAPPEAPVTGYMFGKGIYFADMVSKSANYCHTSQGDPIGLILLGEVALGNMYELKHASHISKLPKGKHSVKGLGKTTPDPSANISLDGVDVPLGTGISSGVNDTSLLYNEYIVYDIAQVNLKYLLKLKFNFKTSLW

With `COc1ccc(C(=O)C2CCN(C3CCN(Cc4nc5c(c(=O)[nH]4)CCC5)C3=O)CC2)cc1` (stereo not shown) [Example 21, 2-((3-(4-(4-methoxybenzoyl)piperidin-1-yl)-2-oxopyrrolidin-1-yl)methyl)-6,7-dihydro-3H-cyclopenta[d]pyrimidin-4(5H)-one], the IC50 (in general, the point on the concentration scale where inhibition reaches its midpoint) turned out to be 10.7 ± 0.2 µM at PARP2; 0.018 µM in test [1]; 29.6 ± 2.8 µM on Human PARP1; 0.0011 ± 0.00017 µM in test [2]; 0.017 ± 0.002 µM in test [3]; 0.034 ± 0.001 µM in test [4]. Also, in the test with Axin2 protein, the half-maximal activity concentration (AC50) (commonly the midpoint of the concentration-response curve, whichever way the signal moves) was determined as 0.007 ± 0.002 µM.

As for `CCc1cc(=O)[nH]c(CN2CCC(N3CCC(C(=O)c4ccc(OC)cc4)CC3)C2=O)n1` (stereo not shown) [Example 24, 6-Ethyl-2-{3-[4-(4-methoxy-benzoyl)-piperidin-1-yl]-2-oxo-pyrrolidin-1-ylmethyl}-3H-pyrimidin-4-one], the 50% inhibitory concentration (IC50) is over 19 µM at PARP2; 0.183 µM in test [1]; over 19 µM at Human PARP1; 0.0104 ± 0.0023 µM in test [2]; 0.053 ± 0.005 µM in test [3]; 0.115 ± 0.004 µM in test [4]. Further, the AC50 in the test with Axin2 protein worked out at 0.104 ± 0.015 µM.

Take `COc1ccc(C(=O)C2CCN(C3CCN(Cc4ncc(C)c(=O)[nH]4)C3=O)CC2)cc1` (stereo not shown) [Example 25, 2-{3-[4-(4-Methoxy-benzoyl)-piperidin-1-yl]-2-oxo-pyrrolidin-1-ylmethyl}-5-methyl-3H-pyrimidin-4-one]: the concentration for half-maximal inhibition (IC50) on PARP2 is over 19 µM; in test [1] it was 0.117 µM; at Human PARP1 it was over 19 µM; in test [2], 0.0034 ± 0.0015 µM; in test [3] it was 0.036 ± 0.006 µM; in test [4], 0.072 ± 0.002 µM. Moreover, in the test with Axin2 protein, the AC50 worked out at 0.046 ± 0.003 µM.

On to `COc1ccc(C(=O)C2CCN(C3CCN(Cc4nc(C)c(C)c(=O)[nH]4)C3=O)CC2)cc1` (stereo not shown) [Example 26, 2-{3-[4-(4-Methoxy-benzoyl)-piperidin-1-yl]-2-oxo-pyrrolidin-1-ylmethyl}-5,6-dimethyl-3H-pyrimidin-4-one], for which the concentration for half-maximal inhibition (IC50) is over 19 µM on PARP2; 0.043 µM in test [1]; over 19 µM on Human PARP1; 0.0041 ± 0.0021 µM in test [2]; 0.026 ± 0.001 µM in test [3]; 0.047 ± 0.002 µM in test [4]. Further, the concentration at half-maximal activity (AC50) in the test on Axin2 protein worked out at 0.021 ± 0.003 µM.

On to `COc1ccc(C(=O)C2CCN([C@H]3CCN(Cc4nc5ccccc(=O)c5[nH]4)C3=O)CC2)cc1C` [Example 28, 2-{(S)-3-[4-(4-Methoxy-3-methyl-benzoyl)-piperidin-1-yl]-2-oxo-pyrrolidin-1-ylmethyl}-3H-cycloheptaimidazol-4-one], for which the IC50 on PARP2 stood at 2.9 ± 0.3 µM; in test [1] it was 0.0008 ± 0.0009 µM; at Human PARP1, 20.2 ± 1.5 µM; in test [2], 0.0015 ± 0.0005 µM; in test [3], 0.007 ± 0.001 µM; in test [4], 0.0195 ± 0.0035 µM. For the same compound, the AC50 in the test on Axin2 protein amounted to 0.00046 ± 0.0002 µM.

As to `Oc1nc(-c2ccc(C(F)(F)F)cc2)nc2c1CSCC2` [XAV939], in test [5], the HSV viral growth entry is listed as “decreased viral growth” and the “HSV viral protein expression” value is “suppressed HSV viral protein expression”.

The values above are taken from US9163003B2, “4-piperidinyl compounds for use as tankyrase inhibitors” (NOVARTIS AG, priority 2011, dated 2015).
